Article PMC1764755, “Human antimicrobial peptide LL-37 is present in atherosclerotic plaques and induces death of vascular smooth muscle cells: a laboratory study” (BMC Cardiovascular Disorders, 2006)

Legend:
Format in all cases: cell-based
[1] = tested on: rat aorta smooth muscle cells; assay: Flow cytometry, FITC-annexin V / propidium iodide; conditions: LL-37 30 μg/ml
Description: Rat aorta smooth muscle cells were harvested from culture plates using trypsin/EDTA and washed in PBS once followed by a 2-h incubation in bicarbonate free MEM at 37°C using gentle end-over-end rotation. […] Staining was performed for 20 min on ice with FITC-annexin V (30 μg/ml) and propidium iodide (30 μg/ml, BD Pharmingen, San Diego, CA, USA) in calcium-containing PBS. Fluorescence-activated cell sorter (FACS) analysis was performed immediately (Becton Dickinson FACS Calibur instrument). 10,000 cells/sample were counted, and results were evaluated by using the Cell Quest software (Becton Dickinson). The same protocol was used for staining of human neutrophils incubated with LL-37 (30 μg/ml) for 30 or 120 min.

[2] = tested on: human neutrophils; assay: Flow cytometry, FITC-annexin V / propidium iodide; conditions: LL-37 30 μg/ml, 30 and 120 minutes, not shown
Description: Human neutrophils were isolated from heparinized blood from healthy donors using the Polymorph isolation kit (Nycomed Pharma AS Diagnostics, Oslo, Norway). Following the manufacturer's instructions, whole blood was layered carefully on neutrophil isolation medium and centrifuged at 400 × g for 30 min at room temperature. After centrifugation the following fractions were apparent: mononuclear cells, neutrophils and erythrocyte pellet. The polymorphonuclear leukocytes layer was suspended in PBS, followed by 10 min centrifugation at 350 × g; residual erythrocytes were removed by hypotonic lysis. After two washes in PBS with centrifugation for 5 min at 250 × g, the pellet was suspended in Minimum essential medium (MEM) and neutrophils were counted using a hemocytometer. The concentration of cells was adjusted to 10^7 cells/ml.
Rat aorta smooth muscle cells were harvested from culture plates using trypsin/EDTA and washed in PBS once followed by a 2-h incubation in bicarbonate free MEM at 37°C using gentle end-over-end rotation. […] Fluorescence-activated cell sorter (FACS) analysis was performed immediately (Becton Dickinson FACS Calibur instrument). 10,000 cells/sample were counted, and results were evaluated by using the Cell Quest software (Becton Dickinson). […]

[3] = tested on: rat aorta smooth muscle cells; assay: Microscopy of cultured cells (Nomarski, DAPI, FITC-annexin V); conditions: for morphological changes: serum free DMEM
Description: Rat aorta smooth muscle cells were grown on methanol-cleansed coverslips in 6-well plates and incubated for 2 or 5 h in serum free DMEM with/without LL-37 (10 or 30 μg/ml) or camptothecin (5 μg/ml, Sigma-Aldrich). After culture, the coverslips were washed with ice-cold PBS containing 1 mM Ca^2+ and the cells were then stained at room temperature for 20 min with FITC-annexin V (20 μg/ml, Roche Molecular Biochemicals, Mannheim, Germany) and 4'6-diamino-2-phenyliondole dihydrochloride (DAPI) nucleic acid stain (100 nM, Molecular probes, Eugene, OR, USA). Thereafter, the cells were fixed with 1 % paraformaldehyde (Becton Dickinson, Bedford MA, U.S.A) in ice-cold PBS containing 1 mM Ca^2+. Fixation was initiated on ice for 15 min and continued at room temperature for 45 min. Cover slips were then mounted using ProLong AntiFade Reagent (Molecular Probes). Visual inspection and recording of images was performed using a Nikon Eclipse TE300 inverted fluorescence microscope equipped with a Hamamatsu C4742-95 cooled CCD camera, using a Plan Apochromat 60 × objective.

[4] = tested on: caspase-3 activity in rat aorta smooth muscle cells; assay: Caspase-3 activity (fluorometric immunosorbent enzyme assay, FIENA); conditions: LL-37 30 μg/ml, 1, 3 and 7 h, corrected for intact cells, n = 6, P < 0.05
Description: Confluent rat aorta smooth muscle cells cultured on 24-well plates were incubated for 1, 3 or 7 h in serum free DMEM in the absence (control) or presence of LL-37 (10 or 30 μg/ml). The caspase-3 activity was measured by using a fluorometric immunosorbent enzyme assay (FIENA, Roche Molecular Biochemicals) according to the manufacturer's instructions. Briefly, the caspase-3 from cellular lysates was captured by immobilized monoclonal anti-caspase-3 antibodies followed by addition of a substrate that is cleaved by caspase-3 generating a fluorescent compound. Fluorescence was then measured at 400 nm excitation and 505 nm emission. […] The caspase-3 activity values were therefore corrected in order to correspond to the fraction of intact cells using the formula […]
Where VIC is the caspase-3 activity of intact cells, VC is the caspase-3 activity of the sample, VL is the LDH activity of the sample and VLT is the total LDH activity of lysed cells. The caspase-3 activity is expressed as % of untreated controls.

[5] = tested on: rat aorta smooth muscle cells; assay: Internucleosomal DNA fragmentation (Cell Death Detection ELISA); conditions: 16 h, n = 7, P < 0.05
Description: (§1) Confluent rat or human aorta smooth muscle cells cultured on 24-well plates were incubated in serum free DMEM for 16 h in the absence (control) or presence of LL-37 (10 and 30 μg/ml). Internucleosomal DNA fragmentation was measured using a Cell Death Detection ELISA Kit (Roche Molecular Biochemicals) according to the manufacturer's instructions. In short, the cells were lysed in the culture wells and the DNA fragments in the lysate were bound to a microtiter plate coated with monoclonal anti-histone antibodies. The bound DNA fragments were then detected by peroxidase-conjugated monoclonal anti-DNA antibodies and 2,2'-azino-di- [3-ethylbenzthiazoline sulfonate]. Optical density was measured at 415 nm and is expressed as % of untreated controls.

[6] = tested on: human aortic smooth muscle cells; assay: as above; conditions: LL-37 30 μg/ml, 16 h, n = 7, P < 0.05
Description: as §1

[7] = tested on: rat aorta smooth muscle cells; assay: LDH release assay; conditions: LL-37 30 μg/ml, 1, 3 and 7 h, n = 7, P < 0.05
Description: Confluent rat aorta smooth muscle cells cultured on 24-well plates were incubated for 1, 3, or 7 h in serum free DMEM in the absence (control) or presence of LL-37 (10 or 30 μg/ml). The lactate dehydrogenase (LDH) activity released into the medium was measured by using the in vitro toxicology assay kit (Tox-7, Sigma-Aldrich) according to the manufacturer's instructions. In short, the medium was centrifuged at 2000 × g for 4 min. The LDH in the supernatants converted a tetrazolium dye, which was measured spectrophotometrically at 490 nm. The LDH activity is expressed as % of total LDH activity of lysed cells.

SMILES | increase in the propidium iodide fluorescence signal of the necrotic cells [1] | increase in FITC-annexin V fluorescence ([1]; 10 to 180 minutes) [fold] | leftmost peak of FITC-annexin V fluorescence histogram ([1]; 10 minutes) | leftmost peak of FITC-annexin V fluorescence histogram ([1]; 180 minutes) [units] | increase in propidium iodide staining of the viable cells ([1]; within 10 minutes) [fold] | staining with propidium iodide and FITC-annexin V [2] | morphological changes ([3]; LL-37 10 μg/ml, not shown) | FITC-annexin V binding of plasma membrane (microscopy) ([3]; LL-37 30 μg/ml, 2 or 5 h) | nuclear appearance (DAPI stain) ([3]; LL-37 30 μg/ml, 2 or 5 h) | morphological changes ([3]; LL-37 30 μg/ml, 2 or 5 h) | caspase-3 activity versus untreated controls [4] | DNA fragmentation compared to controls ([5]; LL-37 10 μg/ml) | DNA fragmentation compared to controls ([5]; LL-37 30 μg/ml) | DNA fragmentation compared to controls [6] | release of LDH into medium versus control [7] | cellular changes compared with those induced by LL-37 (30 μg/ml) ([3]; camptothecin 5 μg/ml, not shown)
CC[C@H](C)[C@H](NC(=O)[C@H](CCCCN)NC(=O)[C@H](CCC(=O)O)NC(=O)[C@H](CCCCN)NC(=O)[C@H](CO)NC(=O)[C@H](CCCCN)NC(=O)[C@H](CCCNC(=N)N)NC(=O)[C@H](Cc1ccccc1)NC(=O)[C@H](Cc1ccccc1)NC(=O)[C@H](CC(=O)O)NC(=O)CNC(=O)[C@H](CC(C)C)NC(=O)[C@@H](N)CC(C)C)C(=O)NCC(=O)N[C@@H](CCCCN)C(=O)N[C@@H](CCC(=O)O)C(=O)N[C@@H](Cc1ccccc1)C(=O)N[C@@H](CCCCN)C(=O)N[C@@H](CCCNC(=N)N)C(=O)N[C@H](C(=O)N[C@H](C(=O)N[C@@H](CCC(N)=O)C(=O)N[C@@H](CCCNC(=N)N)C(=O)N[C@H](C(=O)N[C@@H](CCCCN)C(=O)N[C@@H](CC(=O)O)C(=O)N[C@@H](Cc1ccccc1)C(=O)N[C@@H](CC(C)C)C(=O)N[C@@H](CCCNC(=N)N)C(=O)N[C@@H](CC(N)=O)C(=O)N[C@@H](CC(C)C)C(=O)N[C@H](C(=O)N1CCC[C@H]1C(=O)N[C@@H](CCCNC(=N)N)C(=O)N[C@H](C(=O)N[C@@H](CCC(=O)O)C(=O)N[C@@H](CO)C(=O)O)[C@@H](C)O)C(C)C)[C@@H](C)CC)C(C)C)[C@@H](C)CC [LL-37] | about 1000 fold | 15 | about 2 fluorescence units | ~30 | 10 | weak staining | only small and inconsistent morphological changes | bound FITC-annexin V | nuclei of most cells appeared smaller with fragmented chromatin | progressive cell shrinkage and a rough appearance of the cell membrane | significant increase | statistically significant DNA fragmentation | statistically significant DNA fragmentation | statistically significant DNA fragmentation | significantly increased | 
CC[C@@]1(O)C(=O)OCc2c1cc1n(c2=O)Cc2cc3ccccc3nc2-1 [camptothecin] |  |  |  |  |  |  |  |  |  |  |  |  |  |  |  | similar
